In patent US7691855B2, “Phenyl-[4-(3-phenyl-1h-pyrazol-4-yl)-pyrimidin-2-yl)-amine derivatives” (Novartis AG, priority 2002, dated 2010):

Legend:
EGF-R (HER-1) = target: T1, EGF-R (HER-1) (Homo sapiens, UniProt P00533); assay: Inhibition of EGF-R (HER-1) tyrosine kinase activity; assay type: biochemical; conditions: recombinant intracellular domain of the EGF-receptor
T1 construct: using the recombinant intracellular domain of the EGF-receptor [EGF-R ICD
Experimental: J. Biochem. 207, 265-275 (1992)]. Compared with the control without inhibitor, the compounds of formula I inhibit the enzyme activity by 50% (IC50), for example in a concentration of from 0.0005 to 0.5 μM, especially from 0.001 to 0.1 μM.
(§1) Inhibition of the tyrosine kinase Activity of EGF-R (HER-1), ErbB-2 (HER-2) and VEGF Receptor (KDR)
(§2) The inhibition tests are carried out as described above.

ErbB-2 (HER-2) = ErbB-2 (HER-2) (Homo sapiens, UniProt P04626); assay: Inhibition of ErbB-2 (HER-2) tyrosine kinase activity; assay type: biochemical
Sequence of ErbB-2 (HER-2) (P04626 23-1255): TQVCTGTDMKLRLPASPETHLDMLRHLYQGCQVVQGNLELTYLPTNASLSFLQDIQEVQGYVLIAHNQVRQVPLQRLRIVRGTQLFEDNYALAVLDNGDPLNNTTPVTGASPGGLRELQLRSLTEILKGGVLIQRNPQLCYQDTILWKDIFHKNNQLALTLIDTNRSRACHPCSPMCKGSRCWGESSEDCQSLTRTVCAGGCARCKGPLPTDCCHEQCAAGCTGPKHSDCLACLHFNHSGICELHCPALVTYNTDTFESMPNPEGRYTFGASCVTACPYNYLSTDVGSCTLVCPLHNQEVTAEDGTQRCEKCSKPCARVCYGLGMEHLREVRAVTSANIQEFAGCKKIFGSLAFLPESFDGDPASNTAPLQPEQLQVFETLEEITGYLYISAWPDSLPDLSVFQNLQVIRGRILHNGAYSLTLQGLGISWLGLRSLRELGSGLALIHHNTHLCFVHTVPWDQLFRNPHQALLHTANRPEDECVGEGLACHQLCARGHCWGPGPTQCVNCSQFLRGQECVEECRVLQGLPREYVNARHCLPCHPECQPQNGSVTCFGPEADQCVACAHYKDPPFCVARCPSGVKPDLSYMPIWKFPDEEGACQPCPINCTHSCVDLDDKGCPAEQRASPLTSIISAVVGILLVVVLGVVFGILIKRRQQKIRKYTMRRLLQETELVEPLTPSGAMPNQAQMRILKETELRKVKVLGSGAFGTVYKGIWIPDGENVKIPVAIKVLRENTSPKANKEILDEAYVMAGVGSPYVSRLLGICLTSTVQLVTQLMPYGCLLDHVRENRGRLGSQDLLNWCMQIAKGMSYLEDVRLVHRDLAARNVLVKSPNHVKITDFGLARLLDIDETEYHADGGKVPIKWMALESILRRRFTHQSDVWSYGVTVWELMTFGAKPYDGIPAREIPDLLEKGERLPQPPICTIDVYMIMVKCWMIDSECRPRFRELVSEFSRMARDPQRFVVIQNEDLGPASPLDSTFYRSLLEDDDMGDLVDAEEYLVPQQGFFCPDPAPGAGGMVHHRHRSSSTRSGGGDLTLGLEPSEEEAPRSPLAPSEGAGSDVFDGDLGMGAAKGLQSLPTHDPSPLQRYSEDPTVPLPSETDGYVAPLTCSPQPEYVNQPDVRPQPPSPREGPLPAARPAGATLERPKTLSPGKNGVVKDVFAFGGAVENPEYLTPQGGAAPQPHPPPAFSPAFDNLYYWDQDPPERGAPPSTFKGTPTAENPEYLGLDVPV
Experimental: The inhibitory activity (IC50) is approximately in the range of 0.001 to 0.5 μM. The inhibition of ErbB2 tyrosine kinase (HER-2) can be determined, for example, analogously to the method used for EGF-R protein tyrosine kinase [see C. House et al., Europ. J. Biochem. 140. 363-367 (1984)]. The ErbB-2 kinase can be isolated, and its activity determined, by means of protocols known per se, for example in accordance with T. Akiyama et al., Science 232 1644 (1986).
as §1, §2

VEGF Receptor (KDR) = target: T2, VEGF Receptor (KDR) (Homo sapiens, UniProt P35968); assay: Inhibition of VEGF receptor (KDR) tyrosine kinase activity; assay type: biochemical
T2 construct: as in the cited Wood et al. 2000 method
T2 sequence (P35968 834-1162 limits assumed): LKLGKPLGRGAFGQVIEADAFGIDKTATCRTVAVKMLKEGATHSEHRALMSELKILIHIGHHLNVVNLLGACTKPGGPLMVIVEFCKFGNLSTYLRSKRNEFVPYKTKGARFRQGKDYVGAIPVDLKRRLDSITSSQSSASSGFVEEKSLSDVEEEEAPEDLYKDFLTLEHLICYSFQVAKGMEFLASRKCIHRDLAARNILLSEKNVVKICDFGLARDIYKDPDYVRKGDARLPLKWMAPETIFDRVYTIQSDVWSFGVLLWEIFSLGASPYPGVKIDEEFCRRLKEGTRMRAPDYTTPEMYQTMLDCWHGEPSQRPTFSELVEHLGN
Experimental: The compounds of the present invention are therefore very effective dual inhibitors of EGF- and VEGF-receptor family members. For inhibition of KDR and Flt-1 and inhibition of growth factor-induced proliferation of HUVECS see J. Wood et al., Cancer Res. 60, 2178-2189 (2000). The compounds of formula I inhibit e.g. the KDR tyrosine kinase activity with an IC50 of from about 1 nM to about 1 μM, especially from about 5 nM to about 0.5 μM.
as §1, §2

T1 sequence (P00533 669-1210 limits assumed): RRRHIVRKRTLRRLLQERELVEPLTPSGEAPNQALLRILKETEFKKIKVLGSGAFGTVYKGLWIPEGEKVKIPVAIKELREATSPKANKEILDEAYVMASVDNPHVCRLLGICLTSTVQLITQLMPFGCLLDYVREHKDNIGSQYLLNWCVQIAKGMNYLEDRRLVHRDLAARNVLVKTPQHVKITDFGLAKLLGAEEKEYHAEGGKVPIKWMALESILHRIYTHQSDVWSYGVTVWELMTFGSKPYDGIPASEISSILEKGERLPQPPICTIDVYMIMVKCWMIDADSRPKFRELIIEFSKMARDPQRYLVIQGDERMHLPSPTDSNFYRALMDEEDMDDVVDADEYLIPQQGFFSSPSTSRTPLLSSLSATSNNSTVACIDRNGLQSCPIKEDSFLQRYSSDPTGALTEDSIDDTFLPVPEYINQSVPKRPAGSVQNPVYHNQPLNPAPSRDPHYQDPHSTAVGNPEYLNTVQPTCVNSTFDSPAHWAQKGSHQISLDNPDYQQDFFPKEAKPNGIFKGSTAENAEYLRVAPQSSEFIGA

Row | SMILES | IC50 (EGF-R (HER-1)) | IC50 (ErbB-2 (HER-2)) | IC50 (VEGF Receptor (KDR)) | melting point
1 | CN1CCN(c2ccc(Nc3nccc(-c4cn(C)nc4-c4ccc(Cl)cc4)n3)cc2)CC1 [Example 91, {4-[3-(4-Chloro-phenyl)1-methyl-1H-pyrazol-4yl]-pyrimidin-2-yl}-[4-(4-methyl-piperazin-1-yl)-phenyl]-amine] | 18 nM | 42 nM | 28 nM | 
2 | CN1CCN(c2ccc(Nc3nccc(-c4c[nH]nc4-c4ccc(Cl)cc4)n3)cc2)CC1 [Example 1, {4-[3-(4-Chloro-phenyl)1H-pyrazol-4yl]-pyrimidin-2-yl}-[4-(4-methyl-piperazin-1-yl)-phenyl]-amine] | 18 nM | 23 nM | 10 nM | 282 to 284 °C
3 | Clc1ccc(-c2n[nH]cc2-c2ccnc(Nc3ccc(-c4nnn[nH]4)cc3)n2)cc1 [Example 116, {4-[3-(4-Chloro-phenyl)-1H-pyrazol-4-yl]-pyrimidin-2-yl}-[4-(1H-tetrazol-5-yl)-phenyl]-amine] | 9 nM | < 10 nM | 21 nM | 369 °C
4 | COc1cc(Nc2nccc(-c3c[nH]nc3-c3ccc4c(c3)OCO4)n2)cc(OC)c1OC [Example 46, [4-(3-Benzo[1,3]dioxol-5-yl-1H-pyrazol-4-yl)-pyrimidin-2-yl]-(3,4,5-trimethoxy-phenyl)-amine] | 28 nM | 6 nM | 3 nM | 
5 | Cc1cccc(-c2n[nH]cc2-c2ccnc(Nc3ccc(N4CCN(C)CC4)cc3)n2)c1 [Example 18, [4-(4-Methyl-piperazin-1yl)-phenyl]-[4-(3-m-tolyl-1H-pyrazol-4-yl)-pyrimidin-2-yl]-amine] | 21 nM | 13 nM | 4 nM | 
6 | Cc1cccc(-c2n[nH]cc2-c2ccnc(Nc3ccc(OCCN(C)C)cc3)n2)c1 [Example 20, [4-(2-Dimethylamino-ethoxy)-phenyl]-[4-(3-m-tolyl-1H-pyrazol-4-yl)-pyrimidin-2-yl]-amine] | 27 nM | 15 nM | 6 nM | 
7 | CN(C)CCOc1ccc(Nc2nccc(-c3c[nH]nc3-c3ccc(Cl)cc3)n2)cc1 [Example 2, {4-[3-(4-Chloro-phenyl)-1H-pyrazol-4-yl]-pyrimidin-2-yl}-[4-(2-dimethyl-amino-ethoxy)-phenyl]-amine] | 22 nM | 19 nM | 21 nM | 
8 | Cc1ccc(-c2n[nH]cc2-c2ccnc(Nc3cccc(OCC4CCN(C)CC4)c3)n2)cc1 [Example 124, [3-(1-Methyl-piperidin-4-ylmethoxy)-phenyl]-[4-(3-p-tolyl-1H-pyrazol-4yl)-pyrimidin-2-yl]-amine] | 3 nM | 17 nM | 5 nM | 
9 | CN(C)CCOc1ccc(Nc2nccc(-c3c[nH]nc3-c3ccc(Cl)c(Cl)c3)n2)cc1 [Example 21, {4-[3-(3,4-Dichloro-phenyl)-1H-pyrazol-4-yl]-pyrimidin-2-yl}-[4-(2-dimethylamino-ethoxy)-phenyl]-amine] | 29 nM | 16 nM | 15 nM | 
10 | Cc1ccc(-c2c(-c3ccnc(Nc4ccc(N5CCN(C)CC5)cc4)n3)cnn2C)cc1 [Example 63, [4-(4-Methyl-piperazin-1-yl)-phenyl]-[4-(1-methyl-5-p-tolyl-1H-pyrazol-4-yl)-pyrimidin-2-yl]-amine] |  |  |  | 261 °C
11 | Cc1ccc(-c2nn(CCN(C)C)cc2-c2ccnc(Nc3ccc(CN4CCN(C)CC4)cc3)n2)cc1 [Example 83, {4-[1-(2-Dimethylamino-ethyl)-3-p-tolyl-1H-pyrazol-4-yl]-pyrimidin-2-yl}-[4-(4-methyl-piperazin-1-ylmethyl)-phenyl]-amine] |  |  |  | 62 °C
12 | Cc1ccc(-c2c(-c3ccnc(Nc4ccc(CN5CCN(C)CC5)cc4)n3)cnn2C2CCN(C)CC2)cc1 [Example 84, [4-(4-Methyl-piperazin-1-ylmethyl)-phenyl]-{4-[1-(1-methyl-piperidin-4-yl)-5-p-tolyl-1H-pyrazol-4-yl]-pyrimidin-2-yl}-amine] |  |  |  | 187 °C
13 | CN1CCN(Cc2ccc(Nc3nccc(-c4cn(C)nc4-c4ccc(Cl)cc4)n3)cc2)CC1 [Example 78, {4-[3-(4-Chloro-phenyl)-1-methyl-1H-pyrazol-4yl]-pyrimidin-2-yl}-[4-(4-methyl-piperazin-1-ylmethyl)-phenyl]-amine] |  |  |  | 166 °C
14 | CN1CCN(c2ccc(Nc3nccc(-c4c[nH]nc4-c4ccccc4Cl)n3)cc2)CC1 [Example 52, {4-[3-(2-Chloro-phenyl)-1H-pyrazol-4-yl]-pyrimidin-2-yl}-[4-(4-methyl-piperazin-1-yl)-phenyl]-amine] |  |  |  | 310 °C
15 | Cc1ccc(-c2n[nH]cc2-c2ccnc(Nc3ccc(CN4CCN(C)CC4)cc3)n2)cc1 [Example 60, [4-(4-Methyl-piperazin-1-ylmethyl)-phenyl]-[4-(3-p-tolyl-1H-pyrazol-4-yl)-pyrimidin-2-yl]-amine] | 20 nM | 44 nM | 10 nM | 250 °C
16 | Cc1ccc(-c2c(-c3ccnc(Nc4ccc(CN5CCN(C)CC5)cc4)n3)cnn2C)cc1 [Example 65, [4-(4-Methyl-piperazin-1-ylmethyl)-phenyl]-[4(1-methyl-5-p-tolyl-1H-pyrazol-4-yl)-pyrimidin-2-yl]-amine] |  |  |  | 192 °C
17 | CCN1CCN(Cc2ccc(Nc3nccc(-c4c[nH]nc4-c4ccc(C)cc4)n3)cc2)CC1 [Example 101, [4-(4-Ethyl-piperazin-1-ylmethyl)-phenyl]-[4-(3-p-tolyl-1H-pyrazol-4)-pyrimidin-2-yl]-amine] | 13 nM | 28 nM | 4 nM | 
18 | CC1(C)CC(NCc2ccc(Nc3nccc(-c4c[nH]nc4-c4ccccc4)n3)cc2)CC(C)(C)N1 [Example 120, [4(3-Phenyl-1H-pyrazol-4-yl)-pyrimidin-2-yl]-{4[(2,2,6,6-tetramethyl-piperidin-4-ylamino)-methyl]-phenyl}-amine] |  |  |  | 213 °C
19 | Cc1ccc(-c2nn(C)cc2-c2ccnc(Nc3ccc(N4CCN(C)CC4)cc3)n2)cc1 [Example 64, [4-(4-Methyl-piperazin-1-yl)-phenyl]-[4-(1-methyl-3-p-tolyl-1H-pyrazol-4-yl)-pyrimidin-2-yl]-amine] |  |  |  | 203 °C
20 | CCN1CCN(c2ccc(Nc3nccc(-c4c[nH]nc4-c4ccc(C)cc4)n3)cc2)CC1 [Example 109, [4-(4-Ethyl-piperazin-1-yl)-phenyl]-[4-(3-p-tolyl-1H-pyrazol-4yl)-pyrimidin-2-yl]-amine] | 16 nM | 34 nM | 3 nM | 280 °C
21 | CN1CCC(n2cc(-c3ccnc(Nc4ccc(CN5CCN(C)CC5)cc4)n3)c(-c3ccc(Cl)cc3)n2)CC1 [Example 80, {4-[3-(4-Chloro-phenyl)-1-(1-methyl-piperidin-4-yl)-1H-pyrazol-4yl]-pyrimidin-2-yl}-[4-(4-methyl-piperazin-1-yl-methyl)-phenyl]-amine] |  |  |  | 164 °C
